Test results as given in ChEMBL document CHEMBL1201862, “PubChem BioAssay data set” (2004).
Activity calls are given as the source filed them.

Target: T1, Corticotropin-releasing factor receptor 2/Corticotropin-releasing factor-binding protein (Homo sapiens, UniProt P24387+Q13324)
T1 sequence (Q13324 whole entry): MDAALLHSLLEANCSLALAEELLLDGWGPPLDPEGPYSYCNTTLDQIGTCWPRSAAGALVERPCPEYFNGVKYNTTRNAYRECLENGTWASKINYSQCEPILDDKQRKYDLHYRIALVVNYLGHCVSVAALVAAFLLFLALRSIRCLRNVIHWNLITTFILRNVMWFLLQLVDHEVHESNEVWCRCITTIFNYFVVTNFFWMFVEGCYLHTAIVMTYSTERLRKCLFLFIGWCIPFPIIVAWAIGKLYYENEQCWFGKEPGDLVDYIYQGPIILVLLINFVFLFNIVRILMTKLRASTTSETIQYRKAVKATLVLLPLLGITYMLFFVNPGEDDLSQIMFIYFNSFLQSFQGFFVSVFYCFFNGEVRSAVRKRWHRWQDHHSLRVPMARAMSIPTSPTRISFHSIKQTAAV
T1 sequence (P24387 whole entry): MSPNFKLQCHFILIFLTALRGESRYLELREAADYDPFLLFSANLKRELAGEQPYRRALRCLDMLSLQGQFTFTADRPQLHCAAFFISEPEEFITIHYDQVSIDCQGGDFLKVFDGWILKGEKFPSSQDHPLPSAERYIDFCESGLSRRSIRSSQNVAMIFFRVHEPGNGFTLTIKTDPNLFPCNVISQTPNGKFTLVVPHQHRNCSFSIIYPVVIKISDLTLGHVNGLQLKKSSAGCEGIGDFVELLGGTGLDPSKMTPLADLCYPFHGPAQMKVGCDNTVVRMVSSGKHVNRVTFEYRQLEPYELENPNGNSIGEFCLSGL
Experiment: activators of CRF receptor 2 with binding protein – uHTS hits, confirmation (AID 602473)
Assay type: functional
Settings: read-out: EC50_Mean

Row | Compound | EC50
1 | CCOC(=O)/C(C#N)=C(C)/C=C1\Sc2ccccc2N1CC | 18.4 µM (active)
2 | COC(=O)COc1ccc(Oc2nc(SC)nc(N(C)C)n2)nn1 | > 53 µM (inactive)

The remaining lines, values ahead:

Row | EC50 | Compound
3 | > 53 µM (inactive) | COC(=O)c1cc2sc(Cl)cc2n1CC(=O)Nc1ccc(OC)c(OC)c1OC
4 | 10.7 µM (active) | CC(C(=O)Nc1ccc2c(c1)OCCO2)c1ccc([N+](=O)[O-])cc1 (stereo not given)

Target: T2, Rac GTPase-activating protein 1 (Homo sapiens, UniProt Q9H0H5)
T2 sequence (Q9H0H5 whole entry): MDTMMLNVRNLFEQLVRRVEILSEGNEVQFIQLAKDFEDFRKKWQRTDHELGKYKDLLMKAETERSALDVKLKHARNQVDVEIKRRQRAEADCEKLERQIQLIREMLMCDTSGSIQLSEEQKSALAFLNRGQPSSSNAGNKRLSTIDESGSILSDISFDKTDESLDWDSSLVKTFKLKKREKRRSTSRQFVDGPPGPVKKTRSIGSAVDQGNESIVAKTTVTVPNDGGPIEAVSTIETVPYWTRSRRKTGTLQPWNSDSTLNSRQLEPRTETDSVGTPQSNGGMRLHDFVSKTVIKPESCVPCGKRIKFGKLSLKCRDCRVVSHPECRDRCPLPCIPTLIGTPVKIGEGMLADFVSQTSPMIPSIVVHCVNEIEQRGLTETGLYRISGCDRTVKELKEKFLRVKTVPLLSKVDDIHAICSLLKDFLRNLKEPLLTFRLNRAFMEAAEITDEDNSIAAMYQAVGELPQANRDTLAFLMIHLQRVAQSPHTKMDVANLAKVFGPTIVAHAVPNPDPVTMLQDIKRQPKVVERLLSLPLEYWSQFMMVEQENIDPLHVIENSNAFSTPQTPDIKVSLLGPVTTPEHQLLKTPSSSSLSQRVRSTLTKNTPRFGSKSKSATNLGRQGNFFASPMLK
Experiment: MgcRacGAP GTPase-activating activity inhibitors, confirmation, biochemical, ADP Hunter fluorescence, primary and confirmatory (AID 624330)
Assay type: functional
Settings: not given

Row | IC50 | Compound
5 | 98.5 µM (active) | COC(=O)CCNCCSc1nnc(-c2ccco2)n1Cc1ccccc1
6 | 41.6 µM (active) | COc1cc(/C(C)=N\NC(=O)CSc2nc3ccccc3n2C)ccc1O
7 | 40.2 µM (active) | CCOc1cc(/C=N/Nc2nc(O)nnc2C)ccc1O
8 | 102 µM (active) | CCOC(=O)c1c(NC=C2C(=O)CCCC2=O)sc(C)c1C

Target: Cytochrome P450 2D6 (Homo sapiens, UniProt P10635);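 note: CYP2D6 member of a cytochrome P450 panel assay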
Sequence (P10635 whole entry): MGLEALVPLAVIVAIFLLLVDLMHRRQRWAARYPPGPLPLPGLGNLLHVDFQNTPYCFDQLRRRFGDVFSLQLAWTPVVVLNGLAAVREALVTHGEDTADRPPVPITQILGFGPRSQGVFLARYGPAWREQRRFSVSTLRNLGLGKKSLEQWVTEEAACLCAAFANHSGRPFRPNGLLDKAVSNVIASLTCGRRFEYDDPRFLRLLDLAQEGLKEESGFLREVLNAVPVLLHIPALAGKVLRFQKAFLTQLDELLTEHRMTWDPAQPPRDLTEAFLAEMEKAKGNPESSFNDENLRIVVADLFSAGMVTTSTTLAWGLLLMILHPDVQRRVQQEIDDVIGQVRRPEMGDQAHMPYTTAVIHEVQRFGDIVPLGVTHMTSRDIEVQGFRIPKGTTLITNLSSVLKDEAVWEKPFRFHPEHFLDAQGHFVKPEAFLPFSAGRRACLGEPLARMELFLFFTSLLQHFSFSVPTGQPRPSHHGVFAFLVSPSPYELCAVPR
Settings: not given

Row | AC50 | Compound
9 | 11.2 µM (inconclusive) | CCC(=O)Nc1cc(-c2nn(C)c(=O)c3ccccc23)ccc1N1CCCCC1
10 | 39.8 µM (inconclusive) | COC(=O)N1CCC2(CCCN(c3ccccn3)C2)CC1
11 | 17.8 µM (inconclusive) | COc1ccc2[nH]c(SCC(=O)c3ccco3)nc2c1
12 | 22.4 µM (inconclusive) | CCc1nnc(S)n1/N=C/c1ccc2c(c1)OCO2

Target: T3, Cytochrome P450 1A2 (Homo sapiens, UniProt P05177);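 note: PubChem cytochrome P450 panel assay, CYP1A2 panel member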
T3 sequence (P05177 whole entry): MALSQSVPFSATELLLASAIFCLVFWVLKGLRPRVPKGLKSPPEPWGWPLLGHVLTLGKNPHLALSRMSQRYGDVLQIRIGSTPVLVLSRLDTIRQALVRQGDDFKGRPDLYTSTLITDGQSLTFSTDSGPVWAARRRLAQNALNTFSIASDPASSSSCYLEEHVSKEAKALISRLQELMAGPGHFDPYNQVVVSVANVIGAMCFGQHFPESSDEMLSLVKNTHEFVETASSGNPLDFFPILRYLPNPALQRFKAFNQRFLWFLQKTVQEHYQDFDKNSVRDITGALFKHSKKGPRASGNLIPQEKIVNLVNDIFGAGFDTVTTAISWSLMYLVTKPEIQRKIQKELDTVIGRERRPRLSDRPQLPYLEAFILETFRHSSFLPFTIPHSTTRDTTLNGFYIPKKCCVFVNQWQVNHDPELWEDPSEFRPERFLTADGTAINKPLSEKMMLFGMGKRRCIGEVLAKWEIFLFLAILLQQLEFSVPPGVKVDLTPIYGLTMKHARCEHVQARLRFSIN
Settings: not given

Row | Compound | AC50
13 | CCC(=O)Nc1cc(-c2nn(C)c(=O)c3ccccc23)ccc1N1CCCCC1 | 28.2 µM (inconclusive)
14 | COC(=O)N1CCC2(CCCN(c3ccccn3)C2)CC1 | 25.1 µM (inconclusive)

The remaining lines, values ahead:

Row | AC50 | Compound
15 | 3.16 µM (inconclusive) | O=C(CCN1CCCCC1)c1csc2ccccc12
16 | 25.1 µM (inconclusive) | COc1ccc2c(c1)C(=O)N(c1ccccc1)C(=O)C2

Target: Cytochrome P450 2C9 (Homo sapiens, UniProt P11712)
Sequence (P11712 whole entry): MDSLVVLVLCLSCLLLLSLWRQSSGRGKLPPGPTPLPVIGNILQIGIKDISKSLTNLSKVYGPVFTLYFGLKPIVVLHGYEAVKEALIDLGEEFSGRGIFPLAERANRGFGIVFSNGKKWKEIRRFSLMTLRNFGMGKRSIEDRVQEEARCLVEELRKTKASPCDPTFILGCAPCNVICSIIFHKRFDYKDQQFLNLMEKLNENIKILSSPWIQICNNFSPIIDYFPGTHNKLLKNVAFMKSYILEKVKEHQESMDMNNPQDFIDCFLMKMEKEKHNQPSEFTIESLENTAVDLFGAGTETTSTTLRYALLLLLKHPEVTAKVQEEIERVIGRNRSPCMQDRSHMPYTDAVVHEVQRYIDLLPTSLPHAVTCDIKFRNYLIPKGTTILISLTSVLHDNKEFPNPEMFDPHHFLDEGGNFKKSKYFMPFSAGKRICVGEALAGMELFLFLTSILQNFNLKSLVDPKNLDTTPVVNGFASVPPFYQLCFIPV
Settings: not given

Row | Compound | AC50
17 | CCC(=O)Nc1cc(-c2nn(C)c(=O)c3ccccc23)ccc1N1CCCCC1 | 5.01 µM (inconclusive)
18 | COC(=O)N1CCC2(CCCN(c3ccccn3)C2)CC1 | 31.6 µM (inconclusive)
19 | O=S(=O)(O)c1cc(O)c2c(O)c(/N=N\c3cccc4ccccc34)c(S(=O)(=O)O)cc2c1 | 7.94 µM (inconclusive)
20 | COc1ccc(C2C(C(=O)N3CCOCC3)c3ccccc3C(=O)N2c2ccc(OC)cc2)cc1 (stereo not given) | 0.501 µM (inconclusive)
21 | O=C(CSCc1c(Cl)cccc1Cl)NCc1cccnc1 | 7.94 µM (inconclusive)
22 | CCc1nnc(S)n1/N=C/c1ccc2c(c1)OCO2 | 35.5 µM (inconclusive)

Continued, values first:

Row | AC50 | Compound
23 | 3.16 µM (inconclusive) | O=C(CCN1CCCCC1)c1csc2ccccc12
24 | 22.4 µM (inconclusive) | COc1ccc2c(c1)C(=O)N(c1ccccc1)C(=O)C2
25 | 31.6 µM (inconclusive) | COc1ccc2[nH]c(SCC(=O)c3ccco3)nc2c1
